Results as given in US7763607B2, “Pharmaceutical compositions comprising CBx cannabinoid receptor modulators and potassium channel modulators” (Solvay Pharmaceuticals GmbH, priority 2006, dated 2010).
Read-outs that look alike come from different tables or passages of the source.

Key:
[1] = system: rat perifused pancreatic islets; assay: KATP opening effects through insulin secretion in rat perifused pancreatic islets; type: cell-based; conditions: insulin secretion at 11 mM glucose; for % Inhibition 0-30: 0-30 minutes; for % Inhibition 30-60: 30-60 minutes
Procedure: The animals were maintained on a 12 h light-dark cycle (lights on 06.00-18.00 h) with free access to standard rodent diet (B&K Universal Ltd standard rat and mouse diet (BK 001P), Beekay Feeds, B&K Universal Ltd, Hull, East Riding of Yorkshire) and tap water. The rats were conditioned to this environment for at least one week before experimentation.
Experimental procedures: After the rats were sacrificed, the branch of the bile duct leading to the liver and the duodenal end of the duct in the pancreas were clamped and the pancreas distended by injection of ice-cold 0.9 mg/ml collagenase solution into the bile duct. […] Following incubation, 10 ml of cold buffer was added and the suspension shaken vigorously by hand for 1 min. The islets were allowed to settle for 5 min on ice and washed three times using ice-cold buffer. Well formed and good sized islets from 3 rats were hand-picked (under a low power microscope) and pooled and a final selection of islet transferred to the perifusion apparatus.
Two experiments were performed in parallel in two identical, independent sets of perifusion apparatus each consisting of sufficient number of chambers. Each chamber was loaded with 20 hand-picked islets. Islets were perifused for an initial 30 min period in media containing 4 mM glucose. Perifusate was then collected at 2 min intervals for the remainder of the experiment. […] Perifusate fractions were stored at −75° C. until required for insulin assay. Insulin content of fractions were assayed using a 96-well ELISA assay (Mercodia). Initial insulin assays were performed in triplicate on three pooled fractions from each chamber.
Data were initially expressed as a simple mean of the three experiments for insulin secretion (pg/islet/min) and multiple t-tests (against the corresponding vehicle time period) used to determine potential significant effects of treatments. Alternatively, data were also calculated as a % vehicle effect for each experimental day.

[2] = target: rat SUR2 (Rattus norvegicus, UniProt Q63563); assay: In vitro binding affinity to rodent KATP channels: SUR2 (COS cell membranes); conditions: rat SUR2 transiently expressed in COS cells; isoform (2A/2B) not given
rat SUR2, sequence (Q63563 1-1503 Y1205S limits assumed, form open): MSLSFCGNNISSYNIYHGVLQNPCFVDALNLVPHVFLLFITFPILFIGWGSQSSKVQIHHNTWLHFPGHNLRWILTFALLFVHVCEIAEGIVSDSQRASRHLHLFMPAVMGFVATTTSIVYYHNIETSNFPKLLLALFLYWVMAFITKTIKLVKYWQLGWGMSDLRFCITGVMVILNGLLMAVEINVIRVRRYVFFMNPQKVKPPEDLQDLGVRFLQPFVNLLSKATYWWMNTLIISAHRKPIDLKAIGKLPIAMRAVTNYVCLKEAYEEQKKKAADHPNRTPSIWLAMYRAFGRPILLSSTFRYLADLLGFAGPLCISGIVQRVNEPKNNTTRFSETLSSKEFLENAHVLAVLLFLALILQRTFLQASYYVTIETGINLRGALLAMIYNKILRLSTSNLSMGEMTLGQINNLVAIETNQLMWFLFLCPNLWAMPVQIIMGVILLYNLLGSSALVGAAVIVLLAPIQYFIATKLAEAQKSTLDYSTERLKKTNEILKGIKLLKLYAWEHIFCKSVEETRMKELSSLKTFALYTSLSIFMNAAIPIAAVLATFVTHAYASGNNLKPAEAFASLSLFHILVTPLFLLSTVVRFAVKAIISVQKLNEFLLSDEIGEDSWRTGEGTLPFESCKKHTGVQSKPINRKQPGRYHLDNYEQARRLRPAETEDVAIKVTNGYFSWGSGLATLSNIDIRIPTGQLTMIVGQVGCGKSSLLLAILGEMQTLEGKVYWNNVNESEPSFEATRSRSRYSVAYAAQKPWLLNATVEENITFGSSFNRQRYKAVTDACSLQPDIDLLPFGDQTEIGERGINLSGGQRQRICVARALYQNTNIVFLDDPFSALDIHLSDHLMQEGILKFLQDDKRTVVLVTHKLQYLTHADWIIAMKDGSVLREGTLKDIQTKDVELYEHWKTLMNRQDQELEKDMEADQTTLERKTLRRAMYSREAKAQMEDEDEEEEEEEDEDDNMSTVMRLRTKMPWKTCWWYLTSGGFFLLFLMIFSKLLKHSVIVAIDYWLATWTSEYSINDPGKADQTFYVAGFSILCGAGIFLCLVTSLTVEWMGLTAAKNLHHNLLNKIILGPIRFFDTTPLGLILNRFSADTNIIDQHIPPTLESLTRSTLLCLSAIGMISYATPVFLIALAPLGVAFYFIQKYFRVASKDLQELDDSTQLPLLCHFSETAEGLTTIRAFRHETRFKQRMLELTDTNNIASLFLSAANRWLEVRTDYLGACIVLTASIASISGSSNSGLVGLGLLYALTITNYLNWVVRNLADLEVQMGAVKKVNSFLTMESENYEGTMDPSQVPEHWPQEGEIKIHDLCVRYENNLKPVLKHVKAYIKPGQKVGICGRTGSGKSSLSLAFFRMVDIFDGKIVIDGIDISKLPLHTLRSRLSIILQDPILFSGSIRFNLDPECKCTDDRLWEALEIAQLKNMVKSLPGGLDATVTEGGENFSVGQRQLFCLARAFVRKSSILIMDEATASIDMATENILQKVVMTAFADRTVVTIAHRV
Procedure: Similar to SUR1 (see above) competitive binding experiments were performed to characterize the affinity of the test compounds for the binding sites for sulfonylureas and KCOs on rat SUR2A. The affinity for the KCO site on SUR2A was assessed by displacement of [^3H]P1075 (see Schwanstecher et al., 1998; Dörschner H. et al. Mol. Pharmacol. 55 (1999) 1060-1066 (Dörschner et al., 1999)). The affinity of [^3H]glibenclamide for the […] SUR2 isoforms, however, is too weak to allow direct detection of binding using filtration assays. Therefore, two strategies can be used to detect binding to the sulfonylurea site on SUR2A. First, binding can be detected indirectly through allosteric displacement of [^3H]P1075 (Dörschner et al., 1999). Second, a mutated SUR2A (SUR2AY1205S, see above) with increased affinity for [^3H]glibenclamide allowing direct displacement of this tracer can be used.
Membranes from COS-cells transiently expressing rat SUR2A were incubated in the presence of the radioligands with increasing concentrations of test compounds as described above. […] For each test compound […] displacement curves were measured (displacement of [^3H]P1075 from the rat isoform of the wild type receptor and displacement of [^3H]glibenclamide from the rat isoform of SUR2AY1205S). Per curve 9-15 distinct concentrations were tested covering the relevant range. […]

[3] = target: T1, hamster SUR1 (Cricetus cricetus, UniProt Q09427); assay: biochemical; type: binding
T1 construct: expressed in transfected cells; host or cells: COS-1 cells (transient, pcDNA vector), membranes
T1 sequence (Q09427 whole entry): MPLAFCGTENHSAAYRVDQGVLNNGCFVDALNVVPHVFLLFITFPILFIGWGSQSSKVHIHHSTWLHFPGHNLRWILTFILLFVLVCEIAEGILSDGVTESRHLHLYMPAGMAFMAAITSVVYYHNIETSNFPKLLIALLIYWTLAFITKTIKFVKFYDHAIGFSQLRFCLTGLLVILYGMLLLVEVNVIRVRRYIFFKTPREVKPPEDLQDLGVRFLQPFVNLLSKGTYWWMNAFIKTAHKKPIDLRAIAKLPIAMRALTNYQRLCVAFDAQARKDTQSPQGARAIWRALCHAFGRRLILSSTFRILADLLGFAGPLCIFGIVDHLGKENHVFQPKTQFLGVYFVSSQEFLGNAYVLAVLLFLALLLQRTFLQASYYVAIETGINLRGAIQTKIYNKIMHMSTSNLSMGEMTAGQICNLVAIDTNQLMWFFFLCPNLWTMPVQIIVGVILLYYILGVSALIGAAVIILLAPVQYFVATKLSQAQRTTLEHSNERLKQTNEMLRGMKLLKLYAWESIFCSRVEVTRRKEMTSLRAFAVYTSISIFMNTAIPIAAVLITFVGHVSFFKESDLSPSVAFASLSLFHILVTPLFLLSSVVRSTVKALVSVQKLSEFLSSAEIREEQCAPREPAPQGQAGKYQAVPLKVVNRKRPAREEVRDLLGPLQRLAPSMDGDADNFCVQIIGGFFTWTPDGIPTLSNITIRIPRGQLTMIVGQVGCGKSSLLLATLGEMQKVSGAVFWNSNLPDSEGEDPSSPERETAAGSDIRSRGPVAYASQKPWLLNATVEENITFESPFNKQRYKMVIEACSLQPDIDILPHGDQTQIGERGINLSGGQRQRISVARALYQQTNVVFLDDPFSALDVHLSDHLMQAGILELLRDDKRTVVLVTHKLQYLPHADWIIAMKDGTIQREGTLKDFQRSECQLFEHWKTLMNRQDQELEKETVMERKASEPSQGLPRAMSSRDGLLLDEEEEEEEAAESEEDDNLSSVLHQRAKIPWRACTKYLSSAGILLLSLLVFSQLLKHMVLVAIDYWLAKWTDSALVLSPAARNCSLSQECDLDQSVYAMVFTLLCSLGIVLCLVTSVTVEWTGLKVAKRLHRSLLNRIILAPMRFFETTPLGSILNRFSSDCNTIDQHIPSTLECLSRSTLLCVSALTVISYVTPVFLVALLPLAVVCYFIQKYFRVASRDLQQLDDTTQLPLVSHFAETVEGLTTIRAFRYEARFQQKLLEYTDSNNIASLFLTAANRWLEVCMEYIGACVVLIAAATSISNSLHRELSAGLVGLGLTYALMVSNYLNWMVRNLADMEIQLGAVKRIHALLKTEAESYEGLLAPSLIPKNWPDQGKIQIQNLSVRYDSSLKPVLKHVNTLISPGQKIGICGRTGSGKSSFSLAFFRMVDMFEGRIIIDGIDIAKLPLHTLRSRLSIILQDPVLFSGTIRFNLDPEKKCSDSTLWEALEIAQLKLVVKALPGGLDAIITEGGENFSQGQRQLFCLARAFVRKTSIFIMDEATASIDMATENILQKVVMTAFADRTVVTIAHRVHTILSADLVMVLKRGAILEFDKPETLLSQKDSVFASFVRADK
Procedure: Competitive binding experiments were performed to characterize the affinity of the test compounds for the binding sites for sulfonylureas and KATP channel openers (KCOs) on hamster SUR1. To assess the affinity for the sulfonylurea site membranes from COS-cells transiently expressing hamster SUR1 were incubated in the presence of [^3H]glibenclamide with increasing concentrations of test compounds. […] Per curve 9-15 distinct concentrations were tested covering the relevant range. All measurements were repeated at least 5 times in independent experiments.
[^3H]glibenclamide (specific activity 51 Ci mmol^−1 was obtained from NEN (Dreieich, Germany). If suitable, stock solutions were prepared in dimethylsulfoxide with a final solvent concentration in the media below 1%.
SUR- or Kir6.x isoforms were used either subcloned in the pcDNA (hamster SUR1, mouse Kir6.2) or pCMV vector (rat SUR2A, SUR2B).
Rodent SUR-isoforms and KATP channels were transiently expressed in COS-1 cells as described in the literature. […]
The inhibition constant (Ki value) of the test substances was calculated from the respective IC50 value and was stated as the negative logarithmic value thereof (pKi).

[4] = system: glucose-stimulated insulin release; assay: Inhibition of glucose-stimulated insulin release (potency comparison in text); conditions: relative to diazoxide

## CON/C(=N\S(=O)(=O)c1ccc(Cl)cc1)N1C[C@H](c2cccc(F)c2)C(c2ccc(Cl)cc2)=N1 (stereo in doubt) [4-Chloro-N-{[3-(4-chloro-phenyl)-4-(3-fluoro-phenyl)-4,5-dihydro-pyrazol-1-yl]-methoxyamino-methylene}-benzenesulfonamide]
[1]
  % Inhibition 0-30: 90%
  % Inhibition 30-60: 95%

## CCc1c(C(=O)NN2CCCCC2)nc(-c2ccccc2Cl)n1-c1ccc(Cl)cc1 [1-(4-Chloro-phenyl)-2-(2-chloro-phenyl)-5-ethyl-1H-imidazole-4-carboxylic acid piperidin-1-ylamide, reference compound]
[1]
  % Inhibition 0-30: 59%
  % Inhibition 30-60: 45%

## CSc1c(C(=O)NN2CCCCC2)nc(-c2ccccc2Cl)n1-c1ccc(Cl)cc1 [1-(4-Chloro-phenyl)-2-(2-chloro-phenyl)-5-methylsulfanyl-1H-imidazole-4-carboxylic acid piperidin-1-ylamide]
[1]
  % Inhibition 0-30: 56%
  % Inhibition 30-60: 36%

## CCCCC/C=C\C/C=C\C/C=C\C/C=C\CCCC(=O)OC(CO)CO [2-AG, Icosa-5,8,11,14-tetraenoic acid 2-hydroxy-1-hydroxymethyl-ethyl ester]
[2]
  Affinity to SUR 2: 5.5

## CC1=NS(=O)(=O)c2cc(Cl)ccc2N1 [Diazoxide, diazoxide]
[3]; example in text on SUR binding, subunit not stated, read-out: pKi (converted)
  Ki: 158 µM

## CCCC(C)(C)c1ccc2c(c1)OC(C)(C)[C@@H]1CC=C(C)C[C@@H]21 [JW133, 3-(1,1-dimethyl-butyl)-6,6,9-trimethyl-6a,7,10,10a-tetrahydro-6H-benzo[c]chromene]
[2]
  Affinity to SUR 2: 3.6
[3]; hamster SUR1 transiently expressed in COS cells, read-out: Affinity to SUR 1 (converted)
  Ki: 1.26 µM

## CN/C(=N\S(=O)(=O)N1CCOCC1)N1CC(c2ccccc2)C(c2ccc(Cl)cc2)=N1 (centres unmarked) [Mopholine-4-sulfonic acid [3-(4-chloro-phenyl)-4-phenyl-4,5-dihydro-pyrazol-1-yl]-methylamino-methyleneamide]
[1]
  % Inhibition 0-30: 83%
  % Inhibition 30-60: 91%

## CN/C(=N\S(=O)(=O)N(C)C)N1CC(c2cccc(F)c2)C(c2ccc(Cl)cc2)=N1 (centres unmarked) [N-{[3-(4-Chloro-phenyl)-4-(3-fluoro-phenyl)-4,5-dihydro-pyrazol-1-yl]-methylamino-methylene}-N,N-dimethyl-sulfonamide]
[1]
  % Inhibition 0-30: 72%
  % Inhibition 30-60: 77%

## CN/C(=N\S(=O)(=O)c1ccc(C(F)(F)F)cc1)N1CC(c2cccnc2)C(c2ccc(Cl)cc2)=N1 (centres unmarked) [N-{[3-(4-Chloro-phenyl)-4-pyridin-3-yl-4,5-dihydro-pyrazol-1-yl]-methylamino-methylene}-4-trifluoromethyl-benzenesulfonamide]
[1]
  % Inhibition 0-30: 58%
  % Inhibition 30-60: 31%

## CC1(NC2=Nc3cc(Cl)sc3S(=O)(=O)N2)CC1 [NN-414]
[4]
  times more potent than diazoxide to inhibit glucose-stimulated insulin release: more than 100 times

## CNC(=NS(=O)(=O)N1CCCCC1)C1=NN(c2ccc(Cl)cc2)C(c2ccccc2)C1 (centres unmarked) [Piperdine-1-sulfonic acid [1-(4-chloro-phenyl)-5-phenyl-4,5-dihydro-1H-pyrazol-3-yl]-methylamino-methyleneamide]
[1]
  % Inhibition 0-30: 84%
  % Inhibition 30-60: 47%

## CN(C)CCNC(=NS(=O)(=O)N1CCCCC1)N1CC(c2ccccc2)C(c2ccc(Cl)cc2)=N1 (centres unmarked) [Piperidin-1-sulfonic acid [3-(4-chloro-phenyl)-4-phenyl-4,5-dihydro-pyrazol-1-yl]-(2-dimethylamino-ethyl-amino)-methyleneamide]
[1]
  % Inhibition 0-30: 71%
  % Inhibition 30-60: 64%

## Cc1c(C(=O)NN2CCCCC2)nn(-c2ccc(Cl)cc2Cl)c1-c1ccc(Cl)cc1 [Rimonabant, 5-(4-Chloro-phenyl)-1-(2,4-dichloro-phenyl)-4-methyl-1H-pyrazole-3-carboxylic acid piperidin-1-ylamide, reference compound]
[1]
  % Inhibition 0-30: 22%
  % Inhibition 30-60: 18%
